Where two headings read alike, the source gives them in different places.
Assays:
[1] = tested on: Rat PMNL; assay: Measurement of intracellular calcium in fMLP-stimulated PMNL preloaded with Fura-2; assay type: cell-based; conditions: fMLP stimulus, preincubation with compound 15 minutes at 37°C, concentrations in figure 1
Protocol: (§1) Rat PMNL were obtained from exudates resulting from peritoneal injection of 6 mL of 8% sodium caseinate. Eighteen hours after injection rats were killed by carbon dioxide inhalation and the peritoneal cavity lavaged with Hank's balanced salt solution (HBSS). After concentration of the PMNL by centrifugation, contaminating erythrocytes were removed by hypotonic lysis. The PMNL were then washed twice by centrifugation (400 x g for 10 minutes) and resuspended in HBSS. Cell viability was greater than 90% by Trypan Blue exclusion and greater than 90% of the cells were PMNL by Wright-Giemsa stain.
Intracellular calcium levels were obtained using Fura-2 as fluorescent indicator (Grynkiewicz et al., 1985). Fura-2 was loaded into PMNL as the acetoxymethyl ester (Fura-2/AM) using the method of Korchak et al., (1988). Specifically, 1 X 10⁸ PMNL/mL were incubated in HBSS with 10 µM Fura-2/AM for 10 minutes at 37°C. The cells suspension was then diluted ten fold with HBSS and further incubated for another 20 minutes. The cells were then centrifuged (400 x g for 8 minutes at 25°C) and the PMNL (1 x 10⁷ cells/mL) resuspended in HBSS containing 1% bovine serum albumin. Cells were stored at room temperature and used within 3 hours.
Intracellular calcium level determinations were made using a dual wavelength spectrofluorometer (Photon Technology International, New Brunswick, NJ). Two mL of PMNL suspension (1 x 10⁷ cells/mL) were stirred magnetically at 37°C. Cells were preincubated with the compounds for 15 minutes at 37°C prior to activation. Where compounds were dissolved in DMSO and added directly, the DMSO never exceeded 0.3% in the final cell suspension. Total change in volume with addition of compounds or vehicle and stimuli never exceeded 3%. Intracellular calcium concentrations were calibrated by setting a maximum calcium level in the cells with the addition of 7 µM ionomycin to PMNL in HBSS containing 1% BSA. This was followed by treatment with 20 mM EGTA for 1 hour to obtain a minimum calcium level. […]

[2] = tested on: Rat PMNL; assay: Superoxide anion (SOA) production by stimulated PMNL; assay type: cell-based; conditions: for inhibition of superoxide anion production: PMA and OZ stimulus, result in words; for inhibition at 1 µM / inhibition at 3 µM / inhibition at 10 µM / inhibition at 30 µM / inhibition at 100 µM: Rattus norvegicus, PMNL, inhibition of superoxide anion production; for inhibition at 1 µM: 1 µM compound; for inhibition at 3 µM: 3 µM compound; for inhibition at 10 µM: 10 µM compound; for inhibition at 30 µM: 30 µM compound; for inhibition at 100 µM: 100 µM compound
Protocol: as §1
Aliquots (50 µl) of a rat PMNL suspension (2 x 10⁷ cells/mL in HBSS) were incubated with 50 µl of HBSS containing vehicle (0.3% DMSO) or compound for 30 minutes at 37°C as above. One hundred microliters of buffer containing 5.98 mg/mL of cytochrome C (Sigma Type III) and 0.1 mg/mL catalase, plus the compounds where appropriate, were then added to each sample. A blank for spectrophotometric measurement, containing unstimulated cells in the presence of cytochrome C, catalase and SOD, was also prepared. To activate the PMNL, 75 µl of PMA or OZ were added to achieve the final concentration of cell activator (plus vehicle or inhibitor as described above for MPO release) and the cells further incubated at 37°C for 60 minutes. The activation was terminated by centrifugation at 600 x g for 5 minutes at 4°C. Aliquots (200 µl) of supernatant were then transferred to a second, flat-well microtiter plate and measured spectrophotometrically at 550 nm. […]

[3] = tested on: Mustard Oil-Induced Mouse Ear Edema; assay: Mustard oil-induced mouse ear edema; assay type: in vivo, Charles River male CD-1 mice; conditions: ear weight increase after 30 minutes
Protocol: Charles River male CD-1 mice weighing 30-60 grams were divided into randomized groups. They were dosed i.p. for 30 minutes prior or orally 1 hour prior to application of 20 µl of mustard oil (10% isothiocyanate in acetone) to the right ear. After 30 minutes the mice were sacrificed and an 8 millimeter diameter circular punch biopsy of each ear was obtained and weighed. The difference between the left (control) and right (treated) ear weights were expressed as percent increase.

[4] = tested on: Carrageenin-Induced Rat Paw Edema; assay: Carrageenin-induced rat paw edema; assay type: in vivo, Charles River male Sprague-Dawley rats; conditions: one hour prior to paw injection, paw volume three hours after carrageenin, dose not given
Protocol: Charles River male Sprague-Dawley rats weighing 90 to 100 grams were used. Inflammation of the left hind paw was induced by a 1% carrageenin solution (0.05 cc), injected into the plantar surface of the paw. The contralateral paw was injected with an equal volume of saline. Drugs were administered orally or i.p. (1 cc/100 grams) one hour prior to paw injection. Three hours following the carrageenin injection the difference in volume of the control and inflamed paw was measured. Each paw was immersed in a well of mercury and the volume of mercury displaced was recorded. Paws were uniformly dipped into the mercury up to the beginning of the hairline. A venous pressure transducer, coupled to a chart recorder, was employed to measure the small volumes of mercury displaced. Each group measurement consists of the average of four rats, each with three separate measurements.

[5] = PMA stimulus, read-out: PMA/SOA
[6] = opsonized zymosan stimulus, read-out: OZ/SOA
[7] = 10 mg/Kg i.p., 30 minutes prior to mustard oil
[8] = 10 mg/Kg oral, 1 hour prior to mustard oil
[9] = 30 mg/Kg i.p., 30 minutes prior to mustard oil
[10] = 30 mg/Kg oral, 1 hour prior to mustard oil
[11] = 100 mg/Kg i.p., 30 minutes prior to mustard oil
[12] = 100 mg/Kg oral, 1 hour prior to mustard oil

SMILES | suppression of the second wave of intracellular calcium changes [1] | inhibition of superoxide anion production [2] | inhibition at 1 µM [2, 5] | inhibition at 3 µM [2, 5] | inhibition at 10 µM [2, 5] | inhibition at 30 µM [2, 5] | inhibition at 100 µM [2, 5] | inhibition at 1 µM [2, 6] | inhibition at 3 µM [2, 6] | inhibition at 10 µM [2, 6] | inhibition at 30 µM [2, 6] | inhibition at 100 µM [2, 6] | %Inhibition [3, 7] | %Inhibition [3, 8] | %Inhibition [3, 9] | %Inhibition [3, 10] | %Inhibition [3, 11] | %Inhibition [3, 12] | %Inhibition ([4]; i.p.) | %Inhibition ([4]; p.o.)
O=C(C#Cc1ccncc1)c1ccccc1 [MDL 101,098, 1-Phenyl-3-(4-pyridinyl)-2-propyne-1-one] | selective concentration-dependent suppression | inhibited in a dose dependent fashion | -30.7% | -4.3% | 29.1% | 70% | 97.2% | -18% | -7.5% | 20.3% | 61.5% | 115% | 38.6 ± 13.1% | 38.5 ± 34.9% | 56.8 ± 6.4% | 6.4 ± 27.7% | 68.2 ± 5.8% | 43.9 ± 15.6% | 64.8% | 42.4%
CN(C)c1ccc(C(=O)C#Cc2ccncc2)cc1 [MDL 102,175, 1-(4-Dimethylaminophenyl)-3-(4-pyridinyl)-2-propyne-1-one] | selective concentration-dependent suppression | inhibited in a dose dependent fashion | -20.2% | 13.5% | 49.7% | 77.7% | 100% | -15% | 15.4% | 44.1% | 75.7% | 89.8% | 38.6 ± 13.1% | 38.5 ± 34.9% | 56.8 ± 6.4% | 6.4 ± 27.7% | 68.2 ± 5.8% | 43.9 ± 15.6% | 73.2% | 19.8%
